Reference: ChEMBL document CHEMBL1201862, “PubChem BioAssay data set” (2004)
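Dose response: 5 concentrations. Exposure: 48 h. Format: 96-well plates. Endpoint: linear interpolation; highest concentration if not reached. Here, GI50 denotes the concentration required for 50% inhibition of growth.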 Activity calls are given as the source filed them. No stated cut-off is given here; in the data, active = GI50 up to about 1.1 µM and inactive = higher.

Experiments:
Assay in all cases: growth of human tumour cells (NCI), 48 h
OVCAR-3 = test system: OVCAR-3
NCI-H460 = test system: NCI-H460
SK-MEL-2 = test system: SK-MEL-2
SNB-19 = test system: SNB-19
RXF 393 = test system: RXF 393
NCI/ADR-RES = test system: NCI/ADR-RES
LOX IMVI = test system: LOX IMVI
CCRF-CEM = test system: CCRF-CEM
786-0 = test system: 786-0
DU-145 = test system: DU-145
OVCAR-4 = test system: OVCAR-4
SF-268 = test system: SF-268
SF-295 = test system: SF-295
SK-MEL-28 = test system: SK-MEL-28
HOP-62 = test system: HOP-62
MCF7 = test system: MCF7
U-251 = test system: U-251
HT-29 = test system: HT-29
K562 = test system: K562
HOP-92 = test system: HOP-92

Row | SMILES | GI50 (OVCAR-3) | GI50 (NCI-H460) | GI50 (SK-MEL-2) | GI50 (SNB-19) | GI50 (RXF 393) | GI50 (NCI/ADR-RES) | GI50 (LOX IMVI) | GI50 (CCRF-CEM) | GI50 (786-0) | GI50 (DU-145) | GI50 (OVCAR-4) | GI50 (SF-268) | GI50 (SF-295) | GI50 (SK-MEL-28) | GI50 (HOP-62) | GI50 (MCF7) | GI50 (U-251) | GI50 (HT-29) | GI50 (K562) | GI50 (HOP-92)
1 | Cc1ccc(S(=O)(=O)N/N=C2\C(=O)Nc3cc(O)c(C(=O)O)cc32)cc1 | > 100 µM (inactive) | > 100 µM (inactive) | > 100 µM (inactive) | > 100 µM (inactive) | > 100 µM (inactive) | > 100 µM (inactive) | > 100 µM (inactive) | > 100 µM (inactive) | > 100 µM (inactive) | > 100 µM (inactive) | > 100 µM (inactive) | > 100 µM (inactive) | > 100 µM (inactive) | > 100 µM (inactive) | > 100 µM (inactive) | > 100 µM (inactive) | > 100 µM (inactive) | > 100 µM (inactive) | > 100 µM (inactive) | 
2 | CN(C)CCn1c(=O)c2ccc(NCCCN(C)CCCNc3ccc4c(=O)n(CCN(C)C)c(=O)n5c6ccccc6c(=O)c3c45)c3c(=O)c4ccccc4n(c1=O)c23 | 0.0778 µM (active) | < 0.01 µM (active) | 0.107 µM (active) | < 0.01 µM (active) | < 0.0149 µM (active) | 0.0339 µM (active) | < 0.01 µM (active) | < 0.01 µM (active) | < 0.01 µM (active) | < 0.01 µM (active) | < 0.01 µM (active) | 0.258 µM (active) | < 0.01 µM (active) | 0.165 µM (active) | < 0.0161 µM (active) | < 0.01 µM (active) | < 0.01 µM (active) | < 0.01 µM (active) | < 0.01 µM (active) | 
3 | COc1cc(C2c3cc4c(cc3OC(Nc3ccccc3)C2C)OCO4)cc(OC)c1OC (centres undefined) | 0.323 µM (active) | 0.524 µM (active) | 5.65 µM (inactive) | 1.19 µM (inactive) | 0.565 µM (active) | 0.564 µM (active) | 0.593 µM (active) | 0.315 µM (active) | 0.774 µM (active) | 0.923 µM (active) | 24.7 µM (inactive) | 1.91 µM (inactive) | 0.333 µM (active) | 1.61 µM (inactive) | 0.366 µM (active) | 0.536 µM (active) | 0.392 µM (active) | 0.396 µM (active) | 0.282 µM (active) | 
4 | Cc1sc2ccccc2[n+]1CCC(=O)O | > 100 µM (inactive) | > 100 µM (inactive) | > 100 µM (inactive) | > 100 µM (inactive) | > 100 µM (inactive) | > 100 µM (inactive) | > 100 µM (inactive) |  | > 100 µM (inactive) | > 100 µM (inactive) | > 100 µM (inactive) | > 100 µM (inactive) | > 100 µM (inactive) | > 100 µM (inactive) | > 100 µM (inactive) | > 100 µM (inactive) | > 100 µM (inactive) | > 100 µM (inactive) | 6.67 µM (inactive) | > 100 µM (inactive)
5 | O=C(Cc1ccccc1)NN1C(=O)/C(=C\c2ccccc2O)S/C1=N\c1ccccc1 | > 100 µM (inactive) | > 100 µM (inactive) | > 100 µM (inactive) | > 100 µM (inactive) | > 100 µM (inactive) | > 100 µM (inactive) |  |  | > 100 µM (inactive) | > 100 µM (inactive) | > 100 µM (inactive) | > 100 µM (inactive) | > 100 µM (inactive) | > 100 µM (inactive) | > 100 µM (inactive) | > 100 µM (inactive) | > 100 µM (inactive) | > 100 µM (inactive) |  | 39.3 µM (inactive)
6 | Cc1nc(Nc2ccc(F)cc2)c2sc(=S)n(-c3ccc(F)cc3)c2n1 | 17.1 µM (inactive) | 15.5 µM (inactive) | 15.3 µM (inactive) | 14.7 µM (inactive) | 12.6 µM (inactive) | 17.1 µM (inactive) | 4.99 µM (inactive) |  | 10 µM (inactive) | 13.4 µM (inactive) | 15.5 µM (inactive) | 11 µM (inactive) | 14.3 µM (inactive) | 14.7 µM (inactive) | 11.8 µM (inactive) | 5.5 µM (inactive) | 14.7 µM (inactive) | 6.17 µM (inactive) | 33.2 µM (inactive) | 
7 | CCOC(=O)Cc1[nH]c(C(=O)c2ccccc2)cc1C(=O)c1ccccc1 | 46.3 µM (inactive) | 71.8 µM (inactive) | 39 µM (inactive) | > 100 µM (inactive) | 24.3 µM (inactive) | > 100 µM (inactive) | 22.2 µM (inactive) | > 10 µM (inactive) | > 10 µM (inactive) | > 10 µM (inactive) | 18.3 µM (inactive) | 56.4 µM (inactive) | > 10 µM (inactive) | > 10 µM (inactive) | 23.8 µM (inactive) | > 10 µM (inactive) | > 100 µM (inactive) | > 10 µM (inactive) | > 10 µM (inactive) | 
8 | Cc1c2c(n3c(nc4ccccc43)c1C#N)SCC2 | > 10 µM (inactive) | > 10 µM (inactive) | > 10 µM (inactive) | > 10 µM (inactive) |  | > 10 µM (inactive) | > 10 µM (inactive) | > 10 µM (inactive) | 8.71 µM (inactive) | > 10 µM (inactive) | > 10 µM (inactive) | > 10 µM (inactive) | > 10 µM (inactive) | > 10 µM (inactive) | > 10 µM (inactive) | > 10 µM (inactive) | > 10 µM (inactive) | > 10 µM (inactive) | > 10 µM (inactive) | > 10 µM (inactive)
9 | COc1nc2c(c(=O)[nH]1)N=C(c1ccc(Cl)cc1)CC(c1ccccc1)N2 (centres undefined) | 37.8 µM (inactive) | 27.1 µM (inactive) | 21.3 µM (inactive) | 35.6 µM (inactive) | 23.9 µM (inactive) | 23.8 µM (inactive) | 22.5 µM (inactive) | 19.1 µM (inactive) | 37.6 µM (inactive) | 40.6 µM (inactive) | 22.7 µM (inactive) |  | 23.1 µM (inactive) | 17.7 µM (inactive) | 53.6 µM (inactive) | 39 µM (inactive) | 35.6 µM (inactive) | 34.5 µM (inactive) | 28.1 µM (inactive) | 24.1 µM (inactive)
10 | COc1cccc(/C=N/n2c(Cc3ccccc3)n[nH]c2=O)c1 | > 100 µM (inactive) | > 100 µM (inactive) | > 100 µM (inactive) | > 100 µM (inactive) | 11.2 µM (inactive) | > 31.9 µM (inactive) | 48.9 µM (inactive) | > 100 µM (inactive) | 50.1 µM (inactive) | > 100 µM (inactive) | > 100 µM (inactive) | 43 µM (inactive) | 38.5 µM (inactive) | > 100 µM (inactive) | 42.9 µM (inactive) | > 100 µM (inactive) | > 100 µM (inactive) | > 35.4 µM (inactive) | > 100 µM (inactive) | 
11 | CC1=NN(c2nc(N)nc(/C(C#N)=C\C3COc4ccccc4C3=O)n2)C(C)(C)C1 (centres undefined) | 22.6 µM (inactive) | 26.9 µM (inactive) | 14.8 µM (inactive) |  | 16.4 µM (inactive) | 15.9 µM (inactive) | 27.2 µM (inactive) | 1.9 µM (inactive) | 19.2 µM (inactive) | 31.6 µM (inactive) | 34 µM (inactive) | 21.1 µM (inactive) | 31.3 µM (inactive) | 21.6 µM (inactive) | 32.7 µM (inactive) | 32.4 µM (inactive) | 24.5 µM (inactive) | 26.5 µM (inactive) | 32.1 µM (inactive) | 36.5 µM (inactive)
12 | O=c1[nH]nc(-c2ccccc2)n1/N=C/c1cccs1 | > 100 µM (inactive) | 36.3 µM (inactive) | 99.5 µM (inactive) | > 100 µM (inactive) | 37.3 µM (inactive) | 32.7 µM (inactive) | 43.2 µM (inactive) | 43.1 µM (inactive) | 91.4 µM (inactive) | 32.3 µM (inactive) | 21.7 µM (inactive) | > 100 µM (inactive) | 72.3 µM (inactive) | 86.9 µM (inactive) | > 100 µM (inactive) | 46.6 µM (inactive) | > 100 µM (inactive) | 65.5 µM (inactive) | 38.1 µM (inactive) | 
13 | C=C1C[C@]23CC[C@@H]4C(CO)(CO)CC(=O)C[C@]4(C)[C@@H]2CC[C@H]1C3 | > 100 µM (inactive) | > 100 µM (inactive) | > 100 µM (inactive) | 21.5 µM (inactive) |  | > 100 µM (inactive) | > 100 µM (inactive) | > 100 µM (inactive) | > 100 µM (inactive) | > 100 µM (inactive) | > 100 µM (inactive) | > 100 µM (inactive) | > 100 µM (inactive) | > 100 µM (inactive) | > 100 µM (inactive) | > 100 µM (inactive) | > 100 µM (inactive) | > 100 µM (inactive) | > 100 µM (inactive) | > 100 µM (inactive)
14 | C=C1c2nc3ccccc3n2C=C(c2ccc(OC)cc2)N1c1ccc(OCCN2CCOCC2)cc1 | > 100 µM (inactive) | 3.72 µM (inactive) | 18.5 µM (inactive) | > 100 µM (inactive) | 71.6 µM (inactive) | 5.21 µM (inactive) | 13.3 µM (inactive) | 3.73 µM (inactive) | 36.9 µM (inactive) | > 54.8 µM (inactive) | 11.1 µM (inactive) |  | 41.7 µM (inactive) | 42.2 µM (inactive) | > 100 µM (inactive) | 12.3 µM (inactive) | > 93.3 µM (inactive) | 6.24 µM (inactive) | 7.62 µM (inactive) | > 40.9 µM (inactive)
15 | C=CCOc1ccc(N)c([N+](=O)[O-])c1 |  |  | > 100 µM (inactive) | > 100 µM (inactive) | > 100 µM (inactive) | > 100 µM (inactive) | > 100 µM (inactive) | > 100 µM (inactive) | > 100 µM (inactive) | > 100 µM (inactive) |  | > 100 µM (inactive) | > 100 µM (inactive) | > 100 µM (inactive) | > 100 µM (inactive) | > 100 µM (inactive) | > 100 µM (inactive) | > 100 µM (inactive) | > 100 µM (inactive) | 
